From the NIST ThermoML archive (doi:10.1021/acs.jced.8b00132)
Several values for one entry are separate records, joined by “and”; a condition that tells them apart may be missing. Equal entries are not always repeated.

O=C(C(F)(F)C(F)(F)F)C(F)(C(F)(F)F)C(F)(F)F [dodecafluoro-2-methylpentan-3-one]
Conditions | thermal conductivity
330 K, 67724 kPa, Liquid, transient hot wire | 0.07584 W/m/K
330.01 K, 117 kPa, Gas, hot wire | 0.01411 W/m/K
330.01 K, 14125 kPa, Liquid, transient hot wire | 0.05895 W/m/K
330.01 K, 14129 kPa, Liquid, transient hot wire | 0.05898 W/m/K
330.02 K, 117 kPa, Gas, hot wire | 0.01412 W/m/K
330.02 K, 36718 kPa, Liquid, transient hot wire | 0.0672 W/m/K
330.02 K, 36720 kPa, Liquid, transient hot wire | 0.06721 W/m/K
330.06 K, 57396 kPa, Liquid, transient hot wire | 0.07315 W/m/K
330.06 K, 57404 kPa, Liquid, transient hot wire | 0.07318 W/m/K
330.09 K, 27942 kPa, Liquid, transient hot wire | 0.06426 W/m/K
330.09 K, 27945 kPa, Liquid, transient hot wire | 0.06429 W/m/K
330.1 K, 8617 kPa, Liquid, transient hot wire | 0.05649 W/m/K
330.1 K, 8619 kPa, Liquid, transient hot wire | 0.0565 W/m/K
330.14 K, 4470 kPa, Liquid, transient hot wire | 0.05444 W/m/K
330.14 K, 46576 kPa, Liquid, transient hot wire | 0.07022 W/m/K
330.14 K, 46583 kPa, Liquid, transient hot wire | 0.07015 W/m/K
330.15 K, 4473 kPa, Liquid, transient hot wire | 0.05441 W/m/K
330.16 K, 20517 kPa, Liquid, transient hot wire | 0.06186 W/m/K
330.16 K, 20518 kPa, Liquid, transient hot wire | 0.06149 W/m/K
330.19 K, 67678 kPa, Liquid, transient hot wire | 0.07583 W/m/K
330.2 K, 67695 kPa, Liquid, transient hot wire | 0.07583 W/m/K
330.21 K, 178 kPa, Liquid, transient hot wire | 0.05173 W/m/K
330.22 K, 178 kPa, Liquid, transient hot wire | 0.05205 W/m/K
330.23 K, 180 kPa, Liquid, transient hot wire | 0.05206 W/m/K
330.23 K, 36712 kPa, Liquid, transient hot wire | 0.06716 W/m/K
330.23 K, 36715 kPa, Liquid, transient hot wire | 0.06712 W/m/K
330.24 K, 180 kPa, Liquid, transient hot wire | 0.05202 W/m/K
330.24 K, 14124 kPa, Liquid, transient hot wire | 0.05892 W/m/K
330.24 K, 14130 kPa, Liquid, transient hot wire | 0.05892 W/m/K
330.26 K, 57370 kPa, Liquid, transient hot wire | 0.07313 W/m/K
330.26 K, 57385 kPa, Liquid, transient hot wire | 0.07314 W/m/K
330.31 K, 27940 kPa, Liquid, transient hot wire | 0.06422 W/m/K
330.31 K, 27943 kPa, Liquid, transient hot wire | 0.06422 W/m/K
330.33 K, 8610 kPa, Liquid, transient hot wire | 0.05657 W/m/K
330.33 K, 8620 kPa, Liquid, transient hot wire | 0.05647 W/m/K
330.35 K, 46566 kPa, Liquid, transient hot wire | 0.07011 W/m/K
330.35 K, 46569 kPa, Liquid, transient hot wire | 0.07013 W/m/K
330.38 K, 4468 kPa, Liquid, transient hot wire | 0.05439 W/m/K
330.39 K, 4469 kPa, Liquid, transient hot wire | 0.0544 W/m/K
330.39 K, 20517 kPa, Liquid, transient hot wire | 0.06147 W/m/K
330.4 K, 20518 kPa, Liquid, transient hot wire | 0.06147 W/m/K
330.45 K, 36702 kPa, Liquid, transient hot wire | 0.06713 W/m/K
330.45 K, 36716 kPa, Liquid, transient hot wire | 0.06714 W/m/K
330.46 K, 179 kPa, Liquid, transient hot wire | 0.052 W/m/K
330.47 K, 179 kPa, Liquid, transient hot wire | 0.05202 W/m/K
330.48 K, 180 kPa, Liquid, transient hot wire | 0.05201 W/m/K
330.48 K, 181 kPa, Liquid, transient hot wire | 0.052 W/m/K
330.48 K, 14128 kPa, Liquid, transient hot wire | 0.05889 W/m/K
330.48 K, 14134 kPa, Liquid, transient hot wire | 0.05891 W/m/K
330.53 K, 27942 kPa, Liquid, transient hot wire | 0.0642 W/m/K
330.54 K, 27944 kPa, Liquid, transient hot wire | 0.06418 W/m/K
330.58 K, 8615 kPa, Liquid, transient hot wire | 0.0564 W/m/K
330.58 K, 8617 kPa, Liquid, transient hot wire | 0.05641 W/m/K
330.63 K, 4467 kPa, Liquid, transient hot wire | 0.05435 W/m/K
330.63 K, 20513 kPa, Liquid, transient hot wire | 0.06146 W/m/K
330.64 K, 4463 kPa, Liquid, transient hot wire | 0.05433 W/m/K
330.64 K, 20514 kPa, Liquid, transient hot wire | 0.06146 W/m/K
330.73 K, 179 kPa, Liquid, transient hot wire | 0.05196 W/m/K and 0.05197 W/m/K
330.73 K, 181 kPa, Liquid, transient hot wire | 0.05196 W/m/K and 0.05215 W/m/K
330.73 K, 14130 kPa, Liquid, transient hot wire | 0.05885 W/m/K
330.74 K, 14134 kPa, Liquid, transient hot wire | 0.0589 W/m/K
330.84 K, 8608 kPa, Liquid, transient hot wire | 0.05637 W/m/K
330.84 K, 8609 kPa, Liquid, transient hot wire | 0.05639 W/m/K
330.91 K, 4465 kPa, Liquid, transient hot wire | 0.05432 W/m/K and 0.0543 W/m/K
331.01 K, 179 kPa, Liquid, transient hot wire | 0.05176 W/m/K and 0.05194 W/m/K
331.01 K, 180 kPa, Liquid, transient hot wire | 0.05194 W/m/K
331.01 K, 181 kPa, Liquid, transient hot wire | 0.05193 W/m/K
331.09 K, 3942 kPa, Liquid, transient hot wire | 0.05385 W/m/K
331.1 K, 3945 kPa, Liquid, transient hot wire | 0.05411 W/m/K
331.21 K, 28078 kPa, Liquid, transient hot wire | 0.06464 W/m/K
331.22 K, 20447 kPa, Liquid, transient hot wire | 0.06133 W/m/K
331.22 K, 28080 kPa, Liquid, transient hot wire | 0.06416 W/m/K
331.23 K, 20449 kPa, Liquid, transient hot wire | 0.06095 W/m/K
331.24 K, 14112 kPa, Liquid, transient hot wire | 0.05849 W/m/K
331.25 K, 14113 kPa, Liquid, transient hot wire | 0.05865 W/m/K
331.28 K, 8580 kPa, Liquid, transient hot wire | 0.05626 W/m/K
331.28 K, 8582 kPa, Liquid, transient hot wire | 0.05648 W/m/K
331.31 K, 242 kPa, Liquid, transient hot wire | 0.05138 W/m/K and 0.05151 W/m/K
331.36 K, 73 kPa, Liquid, transient hot wire | 0.05184 W/m/K
331.36 K, 69235 kPa, Liquid, transient hot wire | 0.07553 W/m/K
331.36 K, 69237 kPa, Liquid, transient hot wire | 0.07531 W/m/K
331.37 K, 107 kPa, Liquid, transient hot wire | 0.05182 W/m/K
331.37 K, 57734 kPa, Liquid, transient hot wire | 0.07228 W/m/K
331.37 K, 57739 kPa, Liquid, transient hot wire | 0.07238 W/m/K
